Results: patent US20240109853A1 (Shanghai Yao Yuan Biotechnology Co., Ltd., priority 2020, published 2024)
Read-outs that look alike come from different tables or passages of the source.

How the values were obtained:
[1] = system: ALPK1-dependent NFκB reporter gene activation in HEK293 cells stably expressing an NF-kB reporter (G9 cells); assay: NFκB gene reporter alkaline phosphatase assay; format: cell-based; details: read-out: NFkB assay IC50
Excerpt: In embodiments, a compound of Formula I, or a subembodiment described herein, is an inhibitor of ALPK1 as measured, for example, in an in vitro kinase assay, or an assay designed to measure the activation of downstream targets of ALPK1 pathway activation, for example NFkB transcriptional activation and the secretion of proinflammatory cytokines and chemokines, such as IL-8, which is also referred to as CXCL-8. In general, the computer program XL fit was used for data analysis, including non-linear regression analysis. The half maximal inhibitory concentration (IC50) was used as the measure of a compound's effectiveness in the assays. IC50 values were determined using the following logistic equation Y=min+(max−min)/(1+(X/IC50^−hillslpoe), where Y is the value at the compound concentration, X. The concentration response curve fitting was conducted using GraphPad Prism version 6.00 software.
An alkaline phosphatase reporter assay system was used to measure inhibition of ALPK1-dependent NFκB reporter gene activation. Briefly, HEK293 cells stably expressing an NF-kB reporter (referred to herein as “G9 cells”) were maintained in DMEM as described above. For the assay, cells were seeded into 96-well plates at a density of 10,000 cells/well in Freestyle™ 293 Expression Medium (ThermoFisher), and allowed to attach overnight. Cells were pretreated with serially diluted compounds for 30 min and then stimulated with D-glycero-D-manno-6-fluoro-heptose-1β-S-ADP. […] NFkB gene activation was detected using the chromogenic substrate, para-nitrophenyl phosphate (pNPP) according to the manufacturer's protocols (pNPP Phosphatase Assay, Beyotime Biotechnology).

ALPK1 = ALPK1 (Homo sapiens (Human), UniProt Q96QP1); assay: ALPK1 in vitro kinase assay (HTRF of TIFA phosphorylation); format: biochemical
Chain of ALPK1 (Q96QP1 whole entry): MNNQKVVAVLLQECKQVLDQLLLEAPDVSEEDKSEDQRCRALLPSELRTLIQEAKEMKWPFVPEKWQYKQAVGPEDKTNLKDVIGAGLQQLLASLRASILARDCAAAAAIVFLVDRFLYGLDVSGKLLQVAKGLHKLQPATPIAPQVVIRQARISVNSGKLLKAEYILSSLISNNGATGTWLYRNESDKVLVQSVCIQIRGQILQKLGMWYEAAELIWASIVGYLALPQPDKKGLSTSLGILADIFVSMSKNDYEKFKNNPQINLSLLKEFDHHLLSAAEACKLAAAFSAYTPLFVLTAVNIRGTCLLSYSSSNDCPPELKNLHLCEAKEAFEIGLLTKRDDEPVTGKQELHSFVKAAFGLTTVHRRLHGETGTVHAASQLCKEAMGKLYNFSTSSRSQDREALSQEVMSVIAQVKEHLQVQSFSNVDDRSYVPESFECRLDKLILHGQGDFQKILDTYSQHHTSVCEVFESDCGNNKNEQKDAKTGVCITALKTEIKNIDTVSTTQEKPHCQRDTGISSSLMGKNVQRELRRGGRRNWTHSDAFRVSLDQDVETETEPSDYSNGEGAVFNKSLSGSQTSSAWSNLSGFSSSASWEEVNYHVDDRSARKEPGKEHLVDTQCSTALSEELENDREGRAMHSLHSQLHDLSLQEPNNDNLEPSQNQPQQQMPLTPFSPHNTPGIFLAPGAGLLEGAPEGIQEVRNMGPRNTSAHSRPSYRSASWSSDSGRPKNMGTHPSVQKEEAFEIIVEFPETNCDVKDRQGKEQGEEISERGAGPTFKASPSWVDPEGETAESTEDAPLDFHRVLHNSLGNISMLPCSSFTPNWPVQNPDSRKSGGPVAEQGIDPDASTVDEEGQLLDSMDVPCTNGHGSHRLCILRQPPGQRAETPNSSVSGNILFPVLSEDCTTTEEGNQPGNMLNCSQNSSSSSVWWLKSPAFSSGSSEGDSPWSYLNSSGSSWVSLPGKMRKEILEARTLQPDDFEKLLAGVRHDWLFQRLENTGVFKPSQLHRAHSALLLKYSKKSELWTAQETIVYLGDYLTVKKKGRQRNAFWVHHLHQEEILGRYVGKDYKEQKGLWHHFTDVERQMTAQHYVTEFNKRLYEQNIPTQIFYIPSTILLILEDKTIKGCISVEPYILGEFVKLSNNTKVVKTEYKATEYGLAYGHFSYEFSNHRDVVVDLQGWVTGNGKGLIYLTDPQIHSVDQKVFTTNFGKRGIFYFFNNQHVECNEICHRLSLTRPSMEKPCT

## CC(C)(c1ccc(Br)cc1)c1csc(NC(=O)NCCF)n1 [Example A020, 1-(4-(2-(4-bromophenyl)propan-2-yl)thiazol-2-yl)-3-(2-fluoroethyl)urea]
[1]; Homo sapiens, HEK293
  IC50: 6790 nM
ALPK1
  IC50: 144 nM

## COc1ccc(C(C)(C)c2csc(NC(=O)NCCF)n2)cc1 [Example A021, 1-(2-fluoroethyl)-3-(4-(2-(4-methoxyphenyl)propan-2-yl)thiazol-2-yl)urea]
[1]; Homo sapiens, HEK293
  IC50: 1390 nM
ALPK1
  IC50: 104 nM

## COc1ccc(C(C)(C)c2csc(NC(=O)NCc3ccc(NCCO)nc3)n2)cc1 [Example A022, 1-((6-((2-hydroxyethyl)amino)pyri-din-3-yl)methyl)-3-(4-(2-(4-methoxyphenyl)propan-2-yl)thiazol-2-yl)urea]
[1]
  IC50: 960 nM
ALPK1
  IC50: 232 nM

## COc1ccc(C(C)(C)c2csc(NC(=O)NCc3ccc(N(C)CCO)nc3)n2)cc1 [Example A023, 1-((6-((2-hydroxyethyl)(methyl)a-mino)pyridin-3-yl)methyl)-3-(4-(2-(4-methoxyphenyl)propan-2-yl)thiazol-2-yl)urea]
[1]; Homo sapiens, HEK293
  IC50: 1320 nM
ALPK1
  IC50: 229 nM

## C#CC(C)(c1ccc(Cl)cc1)c1csc(NC(=O)NCCC#N)n1 (stereo not shown) [Example A024, 1-(4-(2-(4-chlorophenyl)but-3-yn-2-yl)thiazol-2-yl)-3-(2-cyanoethyl)urea]
[1]; Homo sapiens, HEK293
  IC50: 1250 nM
ALPK1
  IC50: 13 nM

## CC(C)(c1ccc(C2CC2)cc1)c1csc(NC(=O)NCc2ccc(N3CCNCC3)cc2)n1 [Example A025, 1-(4-(2-(4-cyclopropylphenyl)propan-2-yl)thiazol-2-yl)-3-(4-(piperazin-1-yl)benzyl)urea]
[1]; Homo sapiens, HEK293
  IC50: 8580 nM
ALPK1
  IC50: 334 nM

## CC(C)(c1ccc(Br)cc1)c1csc(NC(=O)NCc2ccc(CN3CCNCC3)cc2)n1 [Example A026, 1-(4-(2-(4-bromophenyl)propan-2-yl)thiazol-2-yl)-3-(4-(piperazin-1-ylmethyl)benzyl)urea]
[1]; Homo sapiens, HEK293
  IC50: 1250 nM
ALPK1
  IC50: 117 nM

## CC(C)(c1ccc(Br)cc1)c1csc(NC(=O)NCc2ccc(N3CCNCC3)cc2)n1 [Example A027, 1-(4-(2-(4-bromophenyl)propan--2 yl)thiazol-2-yl)-3-(4-(piperazin-1-yl)benzyl)urea]
[1]; Homo sapiens, HEK293
  IC50: 1450 nM
ALPK1
  IC50: 46 nM
ALPK1; ALPK1 2 nM, TIFA substrate, ADP-Heptose activator, HTRF readout
  IC50: ~50 nM

## CC(C)(c1ccc(Br)cc1)c1csc(NC(=O)NCCCCN)n1 [Example A028, 1-(4-aminobutyl)-3-(4-(2-(4-bromophenyl)propan-2-yl)thiazol-2-yl)urea]
[1]; Homo sapiens, HEK293
  IC50: 2560 nM
ALPK1
  IC50: 53 nM

## Cc1sc(NC(=O)NCc2ccc(N3CCNCC3)cc2)nc1C(C)(C)c1ccc(Br)cc1 [Example A030, 1-(4-(2-(4-bromophenyl)propan-2-yl)-5-methylthiazol-2-yl)-3-(4-(piperazin-1-yl)benzyl)urea]
[1]; Homo sapiens, HEK293
  IC50: 4110 nM
ALPK1
  IC50: 232 nM

## CC(C)(c1ccc(Cl)c(F)c1)c1csc(NC(=O)NCc2ccc(N3CCNCC3)cc2)n1 [Example A031, 1-(4-(2-(4-chloro-3-fluorophenyl)propan-2-yl)thiazol-2-yl)-3-(4-(piperazin-1-yl)benzyl)urea]
[1]; Homo sapiens, HEK293
  IC50: 1450 nM
ALPK1
  IC50: 345 nM

## CC(C)(c1ccc(Br)cc1)c1csc(NC(=O)NCc2ccc(N3CCC(N)C3)cc2)n1 (stereo not shown) [Example A032, 1-(4-(3-aminopyrrolidin-1-yl)benzyl)-3-(4-(2-(4-bromophenyl)propan-2-yl)thiazol-2-yl)urea]
[1]; Homo sapiens, HEK293
  IC50: 580 nM
ALPK1
  IC50: 291 nM

## CC(C)(c1ccc(Br)cc1)c1csc(NC(=O)NCc2ccc(OCC(=O)N3CCNCC3)cc2)n1 [Example A033, 1-(4-(2-(4-bromophenyl)propan-2-yl)thiazol-2-yl)-3-(4-(2-oxo-2-(piperazin-1-yl)ethoxy)benzyl)urea]
[1]; Homo sapiens, HEK293
  IC50: 3190 nM
ALPK1
  IC50: 80 nM

## CC(C)(c1ccc(Br)cc1)c1csc(NC(=O)NCc2ccc(OCCN3CCNCC3)cc2)n1 [Example A034, 1-(4-(2-(4-bromophenyl)propan-2-yl)thiazol-2-yl)-3-(4-(2-(piperazin-1-yl)ethoxy)benzyl)urea]
[1]; Homo sapiens, HEK293
  IC50: 730 nM
ALPK1
  IC50: 114 nM

## CC(C)(c1ccc(Br)cc1)c1csc(NC(=O)NCc2ccc(OCCCN3CCNCC3)cc2)n1 [Example A035, 1-(4-(2-(4-bromophenyl)propan-2-yl)thiazol-2-yl)-3-(4-(3-(piperazin-1-yl)propoxy)benzyl)urea]
[1]; Homo sapiens, HEK293
  IC50: 2030 nM
ALPK1
  IC50: 52 nM

## COc1ccc(C(C)(C)c2csc(NC(=O)NCc3cnc(N4CCNCC4)c(F)c3)n2)cc1 [Example A036, 1-((5-fluoro-6-(piperazin-1-yl)pyridin-3-yl)methyl)-3-(4-(2-(4-methoxyphenyl)propan-2-yl)thiazol-2-yl)urea]
[1]; Homo sapiens, HEK293
  IC50: 620 nM
ALPK1
  IC50: 24 nM

## COc1ccc(C(C)(C)c2csc(NC(=O)NCc3ccc(CN4CCNCC4)c(F)c3)n2)cc1 [Example A037, 1-(3-fluoro-4-(piperazin-1-ylmethyl)benzyl)-3-(4-(2-(4-methoxyphenyl)propan-2-yl)thiazol-2-yl)urea]
[1]; Homo sapiens, HEK293
  IC50: 2510 nM
ALPK1
  IC50: 57 nM

## CC(C)(c1ccc(Br)cc1)c1csc(NC(=O)NCc2cnc(N3CCNCC3)c(F)c2)n1 [Example A038, 1-(4-(2-(4-bromophenyl)propan-2-yl)thiazol-2-yl)-3-((5-fluoro-6-(piperazin-1-yl)pyridin-3-yl)methyl)urea]
[1]; Homo sapiens, HEK293
  IC50: 1660 nM
ALPK1
  IC50: 30 nM

## CCC(C)(c1ccc(Br)cc1)c1csc(NC(=O)NCc2ccc(N3CCNCC3)cc2)n1 (stereo not shown) [Example A039, 1-(4-(2-(4-bromophenyl)butan-2-yl)thiazol-2-yl)-3-(4-(piperazin-1-yl)benzyl)urea]
[1]; Homo sapiens, HEK293
  IC50: 711 nM
ALPK1
  IC50: 189 nM

## COc1ccc(C(C)(C)c2csc(NC(=O)NCc3cc(F)c(N4CCNCC4)c(F)c3)n2)cc1 [Example A040, 1-(3,5-difluoro-4-(piperazin-1-yl)benzyl)-3-(4-(2-(4-methoxyphenyl)propan-2-yl)thiazol-2-yl)urea]
[1]; Homo sapiens, HEK293
  IC50: 500 nM
ALPK1
  IC50: 45 nM

## COc1ccc(C(C)(C)c2csc(NC(=O)NCc3ccc(NC4CCNCC4)cc3)n2)cc1 [Example A041, 1-(4-(2-(4-methoxyphenyl)propan-2-yl)thiazol-2-yl)-3-(4-(piperidin-4-ylamino)benzyl)urea]
[1]; Homo sapiens, HEK293
  IC50: 1860 nM
ALPK1
  IC50: 23 nM

## COc1ccc(C(C)(C)c2csc(NC(=O)NCc3ccc(C(=O)NC4CCNCC4)cc3)n2)cc1 [Example A042, 4-((3-(4-(2-(4-methoxyphenyl)propan-2-yl)thiazol-2-yl)ureido)methyl)-N-(piperidin-4-yl)benzamide]
[1]; Homo sapiens, HEK293
  IC50: 1000 nM
ALPK1
  IC50: 15 nM

## CC(c1ccc(Br)cc1)c1csc(NC(=O)NCc2ccc(N3CCNCC3)cc2)n1 (stereo not shown) [Example A044, 1-(4-(1-(4-bromophenyl)ethyl)thiazol-2-yl)-3-(4-(piperazin-1-yl)benzyl)urea]
[1]; Homo sapiens, HEK293
  IC50: 1110 nM
ALPK1
  IC50: 147 nM

## O=C(NCc1ccc(N2CCNCC2)cc1)Nc1nc(C2(c3ccc(Br)cc3)CCCC2)cs1 [Example A045, 1-(4-(1-(4-bromophenyl)cyclopentyl)thiazol-2-yl)-3-(4-(piperazin-1-yl)benzyl)urea]
[1]; Homo sapiens, HEK293
  IC50: 1070 nM
ALPK1
  IC50: 24 nM

## CC(C)(c1ccc(Cl)cc1)c1csc(NC(=O)NCc2ccc(N3CCNCC3)cc2)n1 [Example A046, 1-(4-(2-(4-chlorophenyl)propan-2-yl)thiazol-2-yl)-3-(4-(piperazin-1-yl)benzyl)urea]
[1]; Homo sapiens, HEK293
  IC50: 1060 nM
ALPK1
  IC50: 79 nM

## CC(C)(c1ccc(F)cc1)c1csc(NC(=O)NCc2ccc(N3CCNCC3)cc2)n1 [Example A047, 1-(4-(2-(4-fluorophenyl)propan-2-yl)thiazol-2-yl)-3-(4-(piperazin-1-yl)benzyl)urea]
[1]; Homo sapiens, HEK293
  IC50: 2100 nM
ALPK1
  IC50: 167 nM

## CC(C)(c1ccc(Br)cc1)c1csc(NC(=O)NCc2ccc(N3CCNCC3)cc2Cl)n1 [Example A048, 1-(4-(2-(4-bromophenyl)propan-2-yl)thiazol-2-yl)-3-(2-chloro-4-(piperazin-1-yl)benzyl)urea]
[1]; Homo sapiens, HEK293
  IC50: 1530 nM
ALPK1
  IC50: 138 nM

## CC(C)(c1ccc(Br)cc1)c1csc(NC(=O)NCc2ccc(N3CCNCC3)c(C(F)(F)F)c2)n1 [Example A049, 1-(4-(2-(4-bromophenyl)propan-2-yl)thiazol-2-yl)-3-(4-(piperazin-1-yl)-3-(trifluoromethyl)benzyl) urea]
[1]; Homo sapiens, HEK293
  IC50: 800 nM
ALPK1
  IC50: 119 nM

## CC(C)(c1ccc(Br)cc1)c1csc(NC(=O)NCc2ccc(N3CCNCC3)c(F)c2)n1 [Example A050, 1-(4-(2-(4-bromophenyl)propan-2-yl)thiazol-2-yl)-3-(3-fluoro-4-(piperazin-1-yl)benzyl)urea]
[1]; Homo sapiens, HEK293
  IC50: 1210 nM
ALPK1
  IC50: 26 nM

## Cc1cc(N2CCNCC2)ccc1CNC(=O)Nc1nc(C(C)(C)c2ccc(Br)cc2)cs1 [Example A051, 1-(4-(2-(4-bromophenyl)propan-2-yl)thiazol-2-yl)-3-(2-methyl-4-(piperazin-1-yl)benzyl)urea]
[1]; Homo sapiens, HEK293
  IC50: 290 nM
ALPK1
  IC50: 125 nM
